The values that follow come from patent publication US20130190275A1, “COMBINED THERAPIES OF ANTIPSYCHOTIC DRUGS AND TETRACYCLINES IN THE TREATMENT OF PSYCHIATRIC DISORDERS” (MOR RESEARCH APPLICATIONS LTD., priority 2006, published 2013).

Common to all, as to type: in vivo, human
The subject of data set [1] is patients who experience first psychotic episode. The data set is described as follows: CANTAB Intra-extra dimensional set-shifts (IED), adjuvant study. Particulars: atypical antipsychotic drug+minocycline 200 mg/day vs +placebo; time x group p<0.0001. The protocol:
The study was carried out in patients who experience first psychotic episode, and has followed the patient for a total duration of 6 months. As the study examines Minocycline as an adjuvant drug, the sample includes patients receiving one of the following atypical anti-psychotic drugs: Risperdal, Zyprexa, Geodon, Seroquel, and Leponex. […] In addition, the subjects were assessed by a battery of computerized neuropsychological tests (CANTAB—Cambridge Neuropsychological Test Automated Battery), measuring attention, memory, and planning. Minocycline was given as an add-on therapy. Prior to randomization into minocycline/placebo adjuvant treatment, a preliminary (lead-in phase) screening phase of placebo treatment was undertaken: Placebo was given as an adjuvant to all patients for two weeks. […] Randomization was then carried out by the principal investigator. […] Clinical status was evaluated by the aforementioned scales at the onset of the study, every week for the first 6 weeks, and then once a month for the rest of the study period. Cognitive capabilities were assessed by the neuropsychological battery of tests according to the following schedule: upon initiation of the study (referred to as visit 1 in FIGS. 5-8), 3 months (referred to as visit 2 in FIGS. 5-8), and 6 months (referred to as visit 3 in FIGS. 5-8) after the start of the study. […]

Data set [2] has the same test system. Put plainly: CANTAB Stockings of Cambridge (SOC), adjuvant study. The following applies: atypical antipsychotic drug+minocycline 200 mg/day vs +placebo; p=0.001. Here is the method:
(§1) The study was carried out in patients who experience first psychotic episode, and has followed the patient for a total duration of 6 months. As the study examines Minocycline as an adjuvant drug, the sample includes patients receiving one of the following atypical anti-psychotic drugs: Risperdal, Zyprexa, Geodon, Seroquel, and Leponex. […] In addition, the subjects were assessed by a battery of computerized neuropsychological tests (CANTAB—Cambridge Neuropsychological Test Automated Battery), measuring attention, memory, and planning. Executive function was tested by two tasks of the CANTAB: planning was tested by a computerized modification of the Tower of London, and working memory by a spatial working memory task. Minocycline was given as an add-on therapy. […] Clinical status was evaluated by the aforementioned scales at the onset of the study, every week for the first 6 weeks, and then once a month for the rest of the study period. Cognitive capabilities were assessed by the neuropsychological battery of tests according to the following schedule: upon initiation of the study (referred to as visit 1 in FIGS. 5-8), 3 months (referred to as visit 2 in FIGS. 5-8), and 6 months (referred to as visit 3 in FIGS. 5-8) after the start of the study. […]

The test system is the same in data set [3]. The data set is described as follows: CANTAB Spatial Working Memory (SWM), adjuvant study. Particulars: atypical antipsychotic drug+minocycline 200 mg/day vs +placebo. Here is the method:
as §1

A short description of data set [4]: Body weight change 12 weeks after start of treatment, adjuvant study. Particulars: atypical antipsychotic drug+minocycline 200 mg/day. The protocol: The study was carried out in patients who experience first psychotic episode, and has followed the patient for a total duration of 6 months. As the study examines Minocycline as an adjuvant drug, the sample includes patients receiving one of the following atypical anti-psychotic drugs: Risperdal, Zyprexa, Geodon, Seroquel, and Leponex. […] Minocycline was given as an add-on therapy. Prior to randomization into minocycline/placebo adjuvant treatment, a preliminary (lead-in phase) screening phase of placebo treatment was undertaken: Placebo was given as an adjuvant to all patients for two weeks. […] Randomization was then carried out by the principal investigator. The raters and evaluators of the subjects participating in the study were blind to the randomization. […] The body weight of the patients was measured at the start of the study and then 12 weeks later (FIG. 12).

`CN(C)c1ccc(O)c2c1C[C@H]1C[C@H]3[C@H](N(C)C)C(O)=C(C(N)=O)C(=O)[C@@]3(O)C(O)=C1C2=O` [minocycline]: the “IED measures (number of stages completed, total errors adjusted, Pre-ED errors, EDS errors)” value in data set [1] is on record as “improved significantly more than the placebo group on all the IED measures except for the Pre-ED errors measure”. Further, the “SOC number of problems solved in minimum moves” value in data set [2] is on record as “improved significantly more than the placebo group”. Also, the SWM between errors entry in data set [3] (p<0.0001) is on record as “improved significantly more than the placebo group”. Besides, the SWM strategy score entry in data set [3] (p<0.05) is reported as “improved significantly more than the placebo group”. For the same molecule, in data set [4], the “proportion of patients who gained weight” value is on record as 31% and the “proportion of patients who lost weight” value came to 46%.
